Measured values taken from patent US12377065B2, “Compositions for treatment of substance use disorder” (UNIVERSITY OF NORTH TEXAS HEALTH SCIENCE CENTER, priority 2019, dated 2025).
One block for each compound: values may come before it.

Key:
Swiss-Webster mice [1] = assay: Acute cocaine-induced hyperlocomotion (Example 2); details: cocaine 40 mg/kg; for effect on acute cocaine-induced hyperlocomotion: all doses tested, i.p., ANOVA effect of treatment
Swiss-Webster mice [2] = assay: Cocaine-conditioned locomotor response, acquisition and expression (Example 2)
Swiss-Webster mice [3] = assay: Nicotine-induced locomotor activity test; type: in vivo; details: 60-90 min; for motor activity, compound alone: no nicotine, vs vehicle
Procedure: Test Compounds. […] Chantix (varencline, 3 mg/kg) was obtained from National Institute on Drug Abuse. All drugs were dissolved in 0.9% saline and pH was maintained at 7.
Testing Procedures. […] In all studies, horizontal activity (interruption of photocell beams) was measured for 120 min within 10-min periods.
Different groups of Swiss-Webster mice were pretreated via injection (IP) with either DMTU (5 or 10 mg/kg), or Chantix (varenicline, 3 mg/kg) or vehicle (0.9% saline) for 30 minutes (FIG. 10). Following pretreatment all groups were mice were injected via the subcutaneous (sc) route with either 0.9% saline or r nicotine (1.6 mg/kg) just prior to placement in the activity chamber. The activity of all mice were recorded for a period of 2-h (FIG. 10).

Swiss-Webster mice [4] = assay: Cocaine-conditioned locomotor activity, expression test (Example 1); details: last 15 minutes, vs Paired-vehicle, cocaine 40 mg/kg
mice = assay: Cocaine-conditioned place preference; type: in vivo
Procedure: All mice underwent standard place conditioning. As depicted in FIG. 3, the procedures of the first four days were identical to those described previously (Shetty et al., 2017). A preference score was calculated for each individual mouse using the following equation: Time spent on S+ (at test)−Time spent on S+ (at pretest). The preference score assesses the nature and magnitude of drug conditioning to the S+ floor, with positive numbers reflecting an increase in preference for S+ following the experience with cocaine and negative numbers indicating a decrease in preference following experience with cocaine. A second test session was conducted 24 hours later (on day 5). This test was identical to the test session on day 4 except that 30 minutes prior to testing, mice were pretreated with either 5 or 10 mg/kg DMTU (i.p.). A preference score was calculated after the second test in a similar fashion as described for the first preference test.
Data Analysis. […] The existence of subgroups was determined through application of K-means clustering analysis (SYSTAT v. 13.1). In this fashion, Test 1 data was partitioned into 3 subgroups: mice with high positive preference scores (labeled as High Seeker group), mice with low positive preference scores (labeled as Low Seeker group), and mice with negative preference scores (labeled as Avoider group).
Data from the mice treated with 5 mg/kg DMTU during Test 2 were analyzed separately from data from mice treated with 10 mg/kg DMTU. Separate one-way repeated measures analysis of variance (ANOVA) was conducted, with test (comparison of preference score on test day 1 and day 2) as a within-subject factor.
To assess the ability of DMTU (by either the 5 mg/kg or 10 mg/kg dose) to reduce cocaine-induced preference on different subsets of mice, within-subject planned comparisons of preference scores on test 1 and 2 were performed for each cluster separately (Avoider, Low Seeker, High Seeker). Alpha was set to 0.05.

[5] = all doses tested, i.p., ANOVA effect of treatment, last 15 min

Structure (SMILES): O=C1O[C@H]([C@@H](O)CO)C(O)=C1O [Vitamin C, L-ascorbic acid]
effect on acute hyperkinetic effect of cocaine (Swiss-Webster mice [1]; 100 mg/kg i.p.): facilitated the acute hyperkinetic effect of cocaine
acquisition of the cocaine-conditioned locomotor response (Swiss-Webster mice [2]; 100 mg/kg i.p., initial 15 min of the test, post-hoc): facilitated acquisition of the conditioned locomotor response
acquisition of the cocaine-conditioned locomotor response (Swiss-Webster mice [2]; [5]): failed to attenuate acquisition
expression of the cocaine-conditioned locomotor response (Swiss-Webster mice [2]; [5]): failed to attenuate

Structure (SMILES): CC(=O)N[C@@H](CS)C(=O)O [NAC, N-acetylcysteine]
effect on acute cocaine-induced hyperlocomotion (Swiss-Webster mice [1]): no significant main effect
expression of the cocaine-conditioned locomotor response (Swiss-Webster mice [2]; 100 mg/kg i.p., post-hoc): significant attenuation
acquisition of the cocaine-conditioned locomotor response (Swiss-Webster mice [2]; 250 mg/kg i.p., post-hoc vs paired control): significantly attenuated acquisition
ED50:AD50 ratio (Swiss-Webster mice [2]): 1.2731
acquisition of the cocaine-conditioned locomotor response (Swiss-Webster mice [2]; [5]): no significant main effect
expression of the cocaine-conditioned locomotor response (Swiss-Webster mice [2]; [5]): main effect

Structure (SMILES): COc1cc(C(C)=O)ccc1O [Apocynin, apocynin]
effect on acute cocaine-induced hyperlocomotion (Swiss-Webster mice [1]): no significant main effect
expression of the cocaine-conditioned locomotor response (Swiss-Webster mice [2]; 25 mg/kg i.p., initial 15 min of the test, post hoc): facilitated expression of the conditioned response
acquisition of the cocaine-conditioned locomotor response (Swiss-Webster mice [2]; [5]): no effect on acquisition
expression of the cocaine-conditioned locomotor response (Swiss-Webster mice [2]; [5]): no effect on expression

motor activity, compound alone (Swiss-Webster mice [3]; 3 mg/kg IP alone): significant reduction
Structure (SMILES): c1cnc2cc3c(cc2n1)[C@@H]1CNC[C@H]3C1 [Chantix, varenicline]
motor activity with nicotine (Swiss-Webster mice [3]; 3 mg/kg IP 30 min pretreatment + nicotine 1.6 mg/kg sc): significant reduction

motor activity, compound alone (Swiss-Webster mice [3]; DMTU alone (5 or 10 mg/kg IP)): failed to alter the motor activity
Structure (SMILES): CNC(=S)NC [DMTU, N,N′-dimethylthiourea]
effect on acute cocaine-induced hyperlocomotion (Swiss-Webster mice [1]): no significant main effect
expression of cocaine-conditioned locomotor activity (horizontal activity, counts) (Swiss-Webster mice [4]; 5 mg/kg i.p. 30 min before expression test): did not affect activity
expression of cocaine-conditioned locomotor activity (horizontal activity, counts) (Swiss-Webster mice [4]; 10 mg/kg i.p. 30 min before expression test): significantly inhibited cocaine-conditioned locomotor activity
nicotine-induced stimulant locomotor activity (horizontal activity, counts) (Swiss-Webster mice [3]; 5 mg/kg IP 30 min pretreatment + nicotine 1.6 mg/kg sc, only 10 mg/kg was significant): modulated nicotine induced stimulant action
nicotine-induced stimulant locomotor activity (horizontal activity, counts) (Swiss-Webster mice [3]; 10 mg/kg IP 30 min pretreatment + nicotine 1.6 mg/kg sc, vs nicotine alone): significantly reduced the nicotine stimulant activity
cocaine-conditioned place preference score, Test 2 vs Test 1 (mice; 5 mg/kg i.p. 30 min before Test 2, clusters combined, cocaine 15 mg/kg): not significantly altered
cocaine-conditioned place preference score, Test 2 vs Test 1 (mice; 5 mg/kg i.p., Avoider group): Neither dose of DMTU succeeded in blocking preference scores
cocaine-conditioned place preference score, Test 2 vs Test 1 (mice; 5 mg/kg i.p., High Seeker subset): significantly reduced preference scores
cocaine-conditioned place preference score, Test 2 vs Test 1 (mice; 5 mg/kg i.p., Low Seeker group): Neither dose of DMTU succeeded in blocking preference scores
cocaine-conditioned place preference score, Test 2 vs Test 1 (mice; 10 mg/kg i.p. 30 min before Test 2, clusters combined, cocaine 15 mg/kg): not significantly altered
cocaine-conditioned place preference score, Test 2 vs Test 1 (mice; 10 mg/kg i.p., Avoider group): Neither dose of DMTU succeeded in blocking preference scores
cocaine-conditioned place preference score, Test 2 vs Test 1 (mice; 10 mg/kg i.p., High Seeker subset): significantly reduced preference scores
cocaine-conditioned place preference score, Test 2 vs Test 1 (mice; 10 mg/kg i.p., Low Seeker group): Neither dose of DMTU succeeded in blocking preference scores
acquisition of the cocaine-conditioned locomotor response (Swiss-Webster mice [2]; 50 mg/kg i.p., post-hoc): significantly attenuated acquisition
expression of the cocaine-conditioned locomotor response (Swiss-Webster mice [2]; 25-50 mg/kg i.p., post-hoc): significantly attenuating expression
ED50:AD50 ratio (Swiss-Webster mice [2]): 4.676
acquisition of the cocaine-conditioned locomotor response (Swiss-Webster mice [2]; [5]): significant main effect
expression of the cocaine-conditioned locomotor response (Swiss-Webster mice [2]; [5]): significant effect on expression

Structure (SMILES): Cc1c(C)c2c(c(C)c1O)CC[C@@](C)(CCC[C@H](C)CCC[C@H](C)CCCC(C)C)O2 [Vitamin E, (+)-alpha-tocopherol]
effect on acute cocaine-induced hyperlocomotion (Swiss-Webster mice [1]): had no effect on the acute effect of cocaine
acquisition of the cocaine-conditioned locomotor response (Swiss-Webster mice [2]; [5]): failed to attenuate acquisition
expression of the cocaine-conditioned locomotor response (Swiss-Webster mice [2]; [5]): failed to attenuate
